Key:
Rattus norvegicus = species: Rattus norvegicus; experiment: Equieffective molar ratio (EMR) is ratio of concentrations of compound and dequalinium causing 50% inhibition of the After hyperpolarisation (AHP) in rat sympathetic neurons; type: functional, Sympathetic neuron
[1] = target: Small conductance calcium-activated potassium channel protein 2 (Rattus norvegicus, UniProt P70604); experiment: Inhibitory concentration of compound required for SKCa blocking action was assessed from its ability to inhibit After hyperpolarisation (AHP) in cultured rat sympathetic neurons; type: functional, cell-based, Sympathetic neuron
Small conductance calcium-activated potassium channel protein 2, sequence (P70604 whole entry): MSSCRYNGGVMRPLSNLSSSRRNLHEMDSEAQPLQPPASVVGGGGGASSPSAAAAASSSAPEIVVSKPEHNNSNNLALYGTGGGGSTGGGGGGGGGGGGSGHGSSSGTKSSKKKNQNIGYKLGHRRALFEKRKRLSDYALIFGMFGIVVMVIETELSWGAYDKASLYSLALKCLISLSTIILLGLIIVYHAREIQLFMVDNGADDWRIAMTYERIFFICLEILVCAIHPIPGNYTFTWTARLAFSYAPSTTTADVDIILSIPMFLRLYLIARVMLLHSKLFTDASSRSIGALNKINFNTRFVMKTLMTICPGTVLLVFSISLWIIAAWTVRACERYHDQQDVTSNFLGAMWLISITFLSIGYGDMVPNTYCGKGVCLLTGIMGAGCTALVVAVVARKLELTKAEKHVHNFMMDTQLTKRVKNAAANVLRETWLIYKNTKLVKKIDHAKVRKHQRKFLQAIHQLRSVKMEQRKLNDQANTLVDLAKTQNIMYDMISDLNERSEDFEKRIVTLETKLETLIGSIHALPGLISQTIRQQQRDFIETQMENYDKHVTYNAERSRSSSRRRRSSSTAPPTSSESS

`c1ccc(C[n+]2ccc(NCCCCCCCCCCNc3cc[n+](Cc4ccccc4)c4ccccc34)c3ccccc32)cc1` was tested, and the EMR (Rattus norvegicus) was 1 and the IC50 [1] was 700 nM.

With `Nc1cc[n+](Cc2ccc(/C=C\c3ccc(C[n+]4ccc(N)c5ccccc54)cc3)cc2)c2ccccc12` the EMR (Rattus norvegicus) was 0.24 and the IC50 [1] was 190 nM.

For `C1=C\c2ccc(cc2)C[n+]2ccc(c3ccccc32)NCCCCCCCCCCNc2cc[n+](c3ccccc23)Cc2ccc/1cc2`, the EMR (Rattus norvegicus) was 0.28 and the IC50 [1] was 150 nM.

For `Nc1cc[n+](Cc2ccc(-c3ccc(C[n+]4ccc(N)c5ccccc54)cc3)cc2)c2ccccc12`, the EMR (Rattus norvegicus) was 0.4 and the IC50 [1] was 380 nM.

`c1ccc2c(c1)c1cc[n+]2Cc2ccc(cc2)Cc2ccc(cc2)C[n+]2ccc(c3ccccc32)NCCCCCCCCCCN1` [UCL-1530] was tested, and the EMR (Rattus norvegicus) was 0.16 and the IC50 [1] was 80 nM.

`Nc1cc[n+](Cc2ccc(CCc3ccc(C[n+]4ccc(N)c5ccccc54)cc3)cc2)c2ccccc12` gave an EMR (Rattus norvegicus) of 0.71 and an IC50 [1] of 410 nM.

`Nc1cc[n+](Cc2cccc(-c3cccc(C[n+]4ccc(N)c5ccccc54)c3)c2)c2ccccc12` gave an EMR (Rattus norvegicus) of 0.55 and an IC50 [1] of 290 nM.

`c1cc2cc(c1)-c1cccc(c1)C[n+]1ccc(c3ccccc31)NCCCCCCCCCCNc1cc[n+](c3ccccc13)C2` was tested, and the EMR (Rattus norvegicus) was 0.28 and the IC50 [1] was 110 nM.

`c1ccc2c(c1)c1cc[n+]2Cc2ccc(cc2)-c2ccc(cc2)C[n+]2ccc(c3ccccc32)NCCCCCCCCCCN1` gave an EMR (Rattus norvegicus) of 0.28 and an IC50 [1] of 170 nM.

`c1ccc2c(c1)c1cc[n+]2Cc2ccc(cc2)CCc2ccc(cc2)C[n+]2ccc(c3ccccc32)NCCCCCCCCCCN1` gave an EMR (Rattus norvegicus) of 0.58 and an IC50 [1] of 180 nM.

In the case of `c1ccc2c(c1)c1cc[n+]2Cc2ccc3c(c2)Cc2cc(ccc2-3)C[n+]2ccc(c3ccccc32)NCCCCCCCCCCN1`, the EMR (Rattus norvegicus) is reported as 0.12 and the IC50 [1] is reported as 90 nM.

With `Nc1cc[n+](Cc2ccc3c(c2)Cc2cc(C[n+]4ccc(N)c5ccccc54)ccc2-3)c2ccccc12` the EMR (Rattus norvegicus) was 0.33 and the IC50 [1] was 310 nM.

Compound `Nc1cc[n+](Cc2ccc(Cc3ccc(C[n+]4ccc(N)c5ccccc54)cc3)cc2)c2ccccc12` has an EMR (Rattus norvegicus) of 0.39 and an IC50 [1] of 450 nM.

Reference: ChEMBL document CHEMBL1151049, “Bis-quinolinium cyclophanes: A novel class of potent blockers of the apamin-sensitive Ca2+-activated K+ channel” (Bioorg Med Chem Lett, 1997)
